Assay results taken from patent US20120219568A1, “EPIDITHIODIOXO[…] USES THEREOF IN TREATING CANCER” (priority 2011, published 2012).

B1: TRAIL: TNF-related apoptosis-inducing ligand; recombinant TRAIL protein expressed and purified from E. coli (protein, UniProt P50591 1-281, looked up)
Tumor necrosis factor ligand …: MAMMEVQGGPSLGQTCVLIVIFTVLLQSLCVAVTYVYFTNELKQMQDKYSKSGIACFLKEDDSYWDPNDEESMNSPCWQVKWQLRQLVRKMILRTSEETISTVQEKQQNISPLVRERGPQRVAAHITGTRGRSNTLSSPNSKNEKALGRKINSWESSRSGHSFLSNLHLRNGELVIHEKGFYYIYSQTYFRFQEEIKENTKNDKQMVQYIYKYTSYPDPILLMKSARNSCWSKDAEYGLYSIYQGGIFELKENDRIFVSVTNEHLIDMDHEASFFGAFLVG

Experiments:
SW620 cells [1] = experiment: SW620 growth with anticancer drugs, MTT assay; format: cell-based, human; settings: for growth inhibitory effect of the drug alone at lower dose: Etoposide 1 μg/ml, Cisplatin 1 μg/ml, 5-FU 0.1 μg/ml, Doxorubicin 0.01 μg/ml; for SW620 cell sensitivity to the drug: drug alone
Experimental: For cell viability assay, cells were seeded in wells of 96-well plates for 2 days and then treated with different concentrations of mushroom extract fractions or purified verticillin A for 2 days. The cells were then incubated with MTT (3-(4,5-dimethylthiazol-2-yl)-2,5-diphenyltetrazolium bromide) using the MTT assay kit (ATCC, Manassas, Va.) according to the manufacturer's instructions.
Etoposie, Cisplatin, 5-FU and Doxorubicin are commonly used cancer drugs that suppress tumor cell growth through their cytotoxicity. High cytotoxicity is often associated with high dose of their drugs. Furthermore, tumor cells often develop resistance to these cytotoxic drugs. To determine whether Verticillin A can increase the efficacy of these drugs and overcome drug resistance, the effectiveness of Verticillin A combined with these 4 drugs in suppression of tumor cell growth was tested in vitro. SW620 cell sensitivity to these drugs was first measured. SW620 cells are resistant to Etoposide but sensitive to 5-FU. […] SW620 cells were next pretreated with Verticillin A, followed by treatment with Etoposide (1 μg/ml), Cisplatin (1 μg/ml), 5-FU ([…]) and Doxorubicin (0.01 μg/ml), respectively.

[2] = test system: BNIP3, IRF8, Neurog1, p15ink4b, RUNX3; experiment: Expression of genes with methylated promoters; format: cell-based, human; settings: SW620, AzadC 0-1.0 μM
Experimental: To determine whether verticillin A inhibits DNA methylation in other gene promoters, 4 other genes (IRF8, Neurog1, p15ink4b, RUNX3) with known promoter DNA methylation in human colon carcinoma cells were selected. SW620 cells were treated with AzadC (0-1.0 μM) and verticillin A (0-50 nM), respectively, and analyzed for the expression of BNIP3 and these 4 genes.

[3] = test system: Colon carcinoma (LS114N, T84, LS174T and SW620); experiment: A-CDase inhibitor pre-treatment and TRAIL-induced apoptosis; format: cell-based; settings: LCL85 pre-treatment prior to TRAIL
Experimental: A complementary approach was examined to determine the role of A-CDase in TRAIL resistance. Colon carcinoma (LS114N, T84, LS174T and SW620) were treated with A-CDase inhibitor LCL85 prior to TRAIL treatment and analyzed for apoptosis.

SW620 cells [4] = experiment: Exogenous ceramide and TRAIL-mediated apoptosis; format: cell-based, human
Experimental: FIG. 8 is a bar graph showing cell death (%) of SW620 cells incubated with C16 ceramide for 2 h followed by treatment with TRAIL overnight. The tumor cells were then stained with PI and annex V and analyzed by flow cytometry. % apoptotic cells were calculated by the formula [% annexin V^+ cells of the TRAIL-treated cells-% annexin V^+ cells of untreated cells].
A-CDase catalyzes ceramide degradation to decrease ceramide level in the cells and overexpression of A-Cdase is often associated with apoptosis resistance in tumor cells (Elojeimy S, et al. Mol Ther 2007 15(7):1259-63; Liu X, et al. Front Biosci 2008 13:2293-8; Mao C, et al. Biochim Biophys Acta 2008 1781(9):424-34; Ogretmen B. FEBS Lett 2006 580(23):5467-76; Baran Y, et al. J Biol Chem 2007 282(15):10922-34). Inhibition of A-CDase activity is often associated with increased ceramide level and enhanced apoptosis sensitivity (Liu X, et al. Front Biosci 2008 13:2293-8; Ogretmen B. FEBS Lett 2006 580(23):5467-76; White-Gilbertson S, et al. Oncogene 2009 28(8):1132-41). Next, we examined the effect of exogenous ceramide on tumor cell sensitivity to TRAIL-mediated apoptosis. SW620 cells were incubated with different concentrations of C16 ceramide for 2 h and then treated with TRAIL.

SW620 tumor xenograft = SW620 tumor xenograft growth in athymic mice; format: in vivo; settings: TRAIL single agent
Experimental: Athymic mice were subcutaneously inoculated with human hepatoma HepG2 and colon carcinoma SW620 cells, respectively. The tumor-bearing mice were randomized into experimental groups. The control mice were given saline. The treatment group was intravenously injected with verticillin A at the doses of 1 and 2 mg/kg body weight. Tumor size was measured in 2 diameter with micrometer caliper at the indicate times to permit calculation of tumor volume, V=(a×b^2)/2, where “a” is the length and “b” is the width in millimeters. At the end of the experiment, all the animals were sacrificed, The tumor inhibitory rates were calculated using the following formula: [(mean tumor volume of control nude mice−mean tumor volume of treated nude mice)/mean tumor volume of control nude mice]×100%.
The disclosed observations indicate that verticillin A can dramatically increase TRAIL-induced tumor cell apoptosis. To determine whether these in vitro observations can be extended to enhance TRAIL-mediated tumor suppression in vivo, SW620 cells were injected subcutaneously to athymic mice, verticillin A and TRAIL, either used as single agent or in combination, were then injected to the tumor-bearing mice. Tumor growth rate were measured in different time points. Verticillin A can inhibit tumor cell growth in vitro at high dose and sensitize tumor cells to TRAIL-induced apoptosis at a low dose. […] As expected, SW620 tumors are resistant to TRAIL (Voelkel-Johnson C, et al. Mol Cancer Ther 2005 4(9):1320-7).

SW620 cells [5] = experiment: Apoptosis and TRAIL sensitization of SW620 cells (PI/annexin V flow cytometry); format: cell-based, human; settings: SW620, agent alone
Experimental: Cells were seeded in wells of 96-well plates for 2 days and then treated with different concentrations of mushroom extract fractions or purified verticillin A for 2 days. The cells were stained with propidium iodide (PI) (Trevigen, Gaithersburg, Md.) or PI plus annexin V-Alex Fluor 647 (Biolegend, San Diego, Calif.) and analyzed by flow cytometry.
SW620 is a metastatic human colon carcinoma cell line that is resistant to TRAIL-induced apoptosis (Voelkel-Johnson C, et al. Mol Cancer Ther 2005 4(9):1320-7).

Row | Molecule | growth inhibitory effect of the drug alone at lower dose (SW620 cells [1]) | SW620 cell sensitivity to the drug (SW620 cells [1]) | also measured
1 | COc1cccc2c1C(=O)c1c(O)c3c(c(O)c1C2=O)C[C@@](O)(C(=O)CO)C[C@@H]3O[C@H]1C[C@H](N)[C@H](O)[C@H](C)O1 [Doxorubicin] | minimal inhibitory effects | only sensitive to high doses | –
2 | O=c1[nH]cc(F)c(=O)[nH]1 [5-FU] | minimal inhibitory effects | sensitive | –
3 | N.N.[Cl][Pt][Cl] [Cisplatin] | minimal inhibitory effects | only sensitive to high doses | –
4 | COc1cc([C@@H]2c3cc4c(cc3[C@@H](O[C@@H]3O[C@@H]5CO[C@@H](C)O[C@H]5[C@H](O)[C@H]3O)[C@H]3COC(=O)[C@H]23)OCO4)cc(OC)c1O [Etoposide] | minimal inhibitory effects | resistant | –
5 | Nc1ncn([C@H]2C[C@H](O)[C@@H](CO)O2)c(=O)n1 [AzadC, reference compound] | – | – | expression levels of BNIP3, IRF8, Neurog1, p15ink4b, RUNX3 [2]: dramatically increased
6 | O=C(CCCCCCCCCCCCCCC[n+]1ccccc1)N[C@H](CO)[C@H](O)c1ccc([N+](=O)[O-])cc1.[Br-] [LCL85, (1R,2R)-2_N-[16-(1′-pyridinium)-hexadecanoylamino)-1-(4′-nitrophenyl)-1,3-propandiol bromide] | – | – | sensitivity of tumor cells to TRAIL-induced apoptosis [3]: significantly increased the sensitivity of tumor cells to TRAIL-induced apoptosis
7 | CCCCCCCCCCCCC/C=C/[C@@H](O)[C@H](CO)NC(=O)CCCCCCCCCCCCCCC [C16 ceramide] | – | – | tumor cell sensitivity to TRAIL-mediated apoptosis (SW620 cells [4]; SW620, C16 ceramide 2 h then TRAIL): dramatically increased the tumor cell sensitivity to TRAIL-mediated apoptosis; apoptosis-inducing activity (SW620 cells [4]; SW620, C16 ceramide alone): exhibited apoptosis-inducing activity at a dose-dependent manner
8 | B1 | – | – | SW620 tumor response to TRAIL alone (SW620 tumor xenograft): resistant; apoptosis induction, single agent (SW620 cells [5]): no apoptosis induction activity
